Patent US20250297015A1, “DRUG CONDITIONING REGIMEN FOR SICKLE CELL DISEASE” (NEW YORK BLOOD CENTER, INC., priority 2022, published 2025)
“Also recorded” adds a separate entry of the source.

Tests used:
Assay type in all cases: in vivo
[1] = system: peripheral blood inflammatory markers; test: Peripheral blood inflammatory markers (aged neutrophils, sVCAM-1, P-selectin, E-selectin) in SCD mouse model
Method: (§1) This study uses a SCD mouse model, SS Townes mice, to evaluate the effects of GBT-1118, the murine analog of voxelotor, to mobilize hematopoietic progenitor cells (HPC). GBT-1118 (approximately 16 mg/mouse/day) was administered via chow (4 grams of GBT-1118 per kg of chow) daily for a month. The mice were then administered a single dose of plerixafor (10 mg/kg) via subcutaneous injection. […] Peripheral blood was collected in all groups prior to and two-and three-weeks post treatment with GBT-1118 (or control) to assess hemoglobin (Hgb), hematocrit (Hct), aged neutrophils, and circulating HPCs. One to two hrs after plerixafor, peripheral blood was collected for circulating HPC (LSKF) enumeration. Assay results in the groups are compared using ANOVA or Kruskal-Wallis testing.
(§2) Also evaluated were bone marrow HPCs and hematopoietic stem cells (HSCs) with and without plerixafor and peripheral blood inflammatory markers (aged neutrophils, sVAM-1, P-selectin, and E-selectin) with and without plerixafor.
There is an increase in the aged neutrophil population in SCD.
There is evidence that SCD is associated with a chronic inflammatory state. Therefore, inflammatory markers (sVCAM-1, P-selectin, and E-selectin) in the peripheral blood of mice treated with GBT-1118 alone or with plerixafor were evaluated. […] This increase may be related to increased WBC and absolute neutrophil counts (ANC). Plasma P-selectin and E-selectin were not increased with GBT-1118 alone or with plerixafor (FIGS. 6B and 6C).

SS Townes mice = test: Peripheral blood response (Hb, Hct, reticulocytes, WBC) to GBT-1118 in SCD mouse model
Method: as §1

[2] = system: peripheral blood hematopoietic progenitor cells (HPC), LSKF cells; test: Mobilization of peripheral blood hematopoietic progenitor cells (LSKF) in SCD mouse model
Method: as §1
Gating with and without CD45^+ was performed due to the erythroid hyperplasia seen in SCD, where CD45^+ expression decreases along with erythroid maturation (Boulais et al. Immunity 49:627-639, 2018) and the degree of erythroid hyperplasia in each mouse was unknown. The percentage of CD45^+ cells ranged from 60-80% per sample. […] As red cell transfusion tends to decrease circulating hematopoietic stem cells (HSCs) (Tang A et al, Blood 2021), this may be due to the increased bone marrow HSCs (FIGS. 4A and 4B) spilling into peripheral blood due to residual mesenchymal stem cell dysfunction.

[3] = system: bone marrow HPCs and hematopoietic stem cells (HSCs); test: Bone marrow HPCs and HSCs with and without plerixafor in SCD mouse model; conditions: SS Townes mice
Method: as §1, §2
Bone marrow LSK (Lin^−Sca1^+ckit^+) is a less HSC-specific measure than bone marrow HSC (Lin^−Sca1^+ckit+CD48^−CD150^+); the markers Flt3 and CD135 are not present in bone marrow as they are in peripheral blood.

plasma P-selectin ([1]; GBT-1118 alone (FIG. 6B)): not increased | plasma E-selectin ([1]; GBT-1118 alone (FIG. 6C)): not increased | plasma P-selectin ([1]; GBT-1118 with plerixafor (FIG. 6B)): not increased | plasma E-selectin ([1]; GBT-1118 with plerixafor (FIG. 6C)): not increased | plasma sVCAM-1 ([1]; after GBT-1118 treatment (FIG. 6A)): small but significant increase | peripheral blood aged neutrophils (CXCR4high CD62Llow) ([1]; post-mobilization with plerixafor, GBT-1118 versus control (FIG. 5A-B)): not statistically significant
Structure (SMILES): O=Cc1c(O)cccc1OC[C@@H]1CCCCN1C(=O)c1cccnc1 [GBT-1118]
hemoglobin (Hb) (SS Townes mice; GBT-1118 via chow approx. 16 mg/mouse/day, peripheral blood before vs 2 and 3 weeks after treatment (FIG. 1A)): increase | hematocrit (Hct) (SS Townes mice; GBT-1118 via chow, before vs 2 and 3 weeks after treatment (FIG. 1B)): increase | percentage of reticulocytes (retic %) (SS Townes mice; GBT-1118 via chow, before vs 2 and 3 weeks after treatment (FIG. 1C)): decrease | number of white blood cells (WBC) (SS Townes mice; GBT-1118 via chow, before vs 2 and 3 weeks after treatment (FIG. 1D)): essentially unchanged | peripheral blood LSKF cell concentration ([2]; SS Townes mice, compared to control (FIG. 3B)): significantly increased | percentage of peripheral blood LSKF (Lin-Sca1+ckit+Flt3-CD135-) cells mobilized ([2]; with CD45+ gating, plerixafor mobilization, 1-2 h after plerixafor, compared to control animals (FIGS. 3A and 3C)): higher percentage | bone marrow HSCs, as % of Lin- cells ([3]; GBT-1118 alone versus control (FIG. 4A)): significantly increased | total number of bone marrow HSC per femur ([3]; GBT-1118 versus control (FIG. 4B)): trend towards an increase; also recorded: trend towards increased
